According to patent US20100160356A1, “NOVEL CYCLOBUTYL COMPOUNDS AS KINASE INHIBITORS” (priority 2006, published 2010):
In brackets after ≈: the same amount, converted by molar mass.

Experiments:
[1] = target: VEGF-2 (Homo sapiens, UniProt P35968); assay: Inhibition of VEGF-2 (flashplate assay); type: biochemical; conditions: flashplate method
How it was run: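 Kinase incubated 3 hr at room temperature with ^33P-ATP and biotinylated poly(Glu, Tyr)4:1, with or without test substance. Stopped with EDTA, wells washed after 30 min; incorporated radioactivity counted by scintillation and IC50 calculated.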

[2] = target: TIE2 (Homo sapiens, UniProt Q02763); assay: Inhibition of TIE2 (flashplate assay); type: biochemical; conditions: flashplate method
How it was run: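 Radiometric flashplate kinase assay: TIE2 incubated 3 h at room temperature with ³³P-ATP and biotinylated poly(Glu,Tyr) 4:1, with or without test compound. Reaction stopped with EDTA, wells washed, incorporated radioactivity counted by scintillation; IC50 calculated from the data.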

[3] = target: FAK (Homo sapiens, UniProt Q05397); assay: Inhibition of FAK (flashplate assay); type: biochemical; conditions: flashplate method
Protocol: The test plates used are 384-well flashplate microtitre plates from Perkin Elmer (USA). The components of the kinase reaction are pipetted into the assay plate. The FAK kinase is incubated for 3 hr. with radioactively labelled ^33P-ATP in the presence and absence of test substances in a total volume of 100 μl at room temperature together with biotinylated poly(Glu, Tyr)4:1. The reaction is terminated using 25 μl of a 200 mM EDTA solution. After incubation for a further 30 min at room temperature, the supernatants are removed by suction, and the wells are washed three times with 100 μl of 0.9% NaCl solution each time. The radioactivity is measured using a Topcount scintillation counter (PerkinElmer, USA). IC50 values are calculated using the RS1 computer program.

[4] = target: T1, insulin receptor (InsR) (Homo sapiens, UniProt P06213); assay: Inhibition of InsR (ELISA assay), insulin-stimulated autophosphorylation in cells; type: cell-based; conditions: human cells stimulated with insulin
T1 construct: endogenous in cells; host or cells: HepG2
Protocol: Cultivated human cells which express the insulin receptor (InsR) (for example HepG2) are stimulated using human insulin, the natural ligand of InsR. The stimulation induces autophosphorylation of tyrosine residues in the cytoplasmatic InsR domain, which triggers signal transduction cascades, which initiate various biological reactions of the cells. The amount of phosphorylated InsR is determined by a receptor-specific capture ELISA or an analogous LUMINEX assay. The InsR from cell lysates is bound to a 96-well ELISA plate or LUMINEX beads by means of a specific antibody (“capturing”), and the tyrosine phosphorylation is detected using a biotin-labelled anti-phosphotyrosine antibody and a streptavidin-peroxidase conjugate by a chemiluminescence method or by means of a fluorescence-labelled anti-phosphotyrosine antibody. For determination of the activity of kinase inhibitors, cells are pretreated with increasing concentrations of these compounds for 45 min and subsequently stimulated using insulin for 5 min. As internal control, the biological activity of the ligand insulin is checked, and a concentration series of a reference inhibitor is measured.

[5] = Solubility in phosphate buffer by the shake flask method; type: physicochemical; conditions: pH 7.0, 37° C., 24 h shake flask; for solubility at 24 h: 37 °C, pH 7, aqueous buffer, thermodynamic from solid
Protocol: The procedure described in Glomme et al. (J. Pharm. Sci. 94(1): 1-16, 2005) is followed. The concentration determination is carried out by HPLC with UV detection against a standard solution.
Buffer: 3.954 g of sodium dihydrogenphosphate monohydrate 6.024 g of sodium chloride +950 ml of ultrapure water. Setting of pH 7.0 using 0.1 M NaOH or 0.1 M HCl.
The samples were shaken at 37° C. and 450 rpm for 24 h. After about 7 h, the pH of the samples was checked and adjusted if necessary. It was checked whether the sample was still present in excess. Just before the end of the 24 h shaking time, the samples were again checked for pH and a precipitate.
• Ultrapure water plant: MilliQ gradient, Millipore, unit: F3PN37462D • Shaker: TiMix control, Bühler • Incubation hood: TH 15, Bühler • pH meter: 766 Calimatic Knick instrument: pH 1 • pH electrode: InLab 423 Mettler • HPLC: column: LiChroCart 125-4 LiChrospher 100 RP-18 • flow rate: 1.000 ml/min • eluents: • eluent A: 2 ml of diethylamine, for synthesis+1000 ml of methanol, LiChrosolv • eluent B: 5 g of ammonium acetate, for analysis+5 ml of methanol, LiChrosolv+995 ml of ultrapure water

Sequence of VEGF-2 (P35968 20-1356): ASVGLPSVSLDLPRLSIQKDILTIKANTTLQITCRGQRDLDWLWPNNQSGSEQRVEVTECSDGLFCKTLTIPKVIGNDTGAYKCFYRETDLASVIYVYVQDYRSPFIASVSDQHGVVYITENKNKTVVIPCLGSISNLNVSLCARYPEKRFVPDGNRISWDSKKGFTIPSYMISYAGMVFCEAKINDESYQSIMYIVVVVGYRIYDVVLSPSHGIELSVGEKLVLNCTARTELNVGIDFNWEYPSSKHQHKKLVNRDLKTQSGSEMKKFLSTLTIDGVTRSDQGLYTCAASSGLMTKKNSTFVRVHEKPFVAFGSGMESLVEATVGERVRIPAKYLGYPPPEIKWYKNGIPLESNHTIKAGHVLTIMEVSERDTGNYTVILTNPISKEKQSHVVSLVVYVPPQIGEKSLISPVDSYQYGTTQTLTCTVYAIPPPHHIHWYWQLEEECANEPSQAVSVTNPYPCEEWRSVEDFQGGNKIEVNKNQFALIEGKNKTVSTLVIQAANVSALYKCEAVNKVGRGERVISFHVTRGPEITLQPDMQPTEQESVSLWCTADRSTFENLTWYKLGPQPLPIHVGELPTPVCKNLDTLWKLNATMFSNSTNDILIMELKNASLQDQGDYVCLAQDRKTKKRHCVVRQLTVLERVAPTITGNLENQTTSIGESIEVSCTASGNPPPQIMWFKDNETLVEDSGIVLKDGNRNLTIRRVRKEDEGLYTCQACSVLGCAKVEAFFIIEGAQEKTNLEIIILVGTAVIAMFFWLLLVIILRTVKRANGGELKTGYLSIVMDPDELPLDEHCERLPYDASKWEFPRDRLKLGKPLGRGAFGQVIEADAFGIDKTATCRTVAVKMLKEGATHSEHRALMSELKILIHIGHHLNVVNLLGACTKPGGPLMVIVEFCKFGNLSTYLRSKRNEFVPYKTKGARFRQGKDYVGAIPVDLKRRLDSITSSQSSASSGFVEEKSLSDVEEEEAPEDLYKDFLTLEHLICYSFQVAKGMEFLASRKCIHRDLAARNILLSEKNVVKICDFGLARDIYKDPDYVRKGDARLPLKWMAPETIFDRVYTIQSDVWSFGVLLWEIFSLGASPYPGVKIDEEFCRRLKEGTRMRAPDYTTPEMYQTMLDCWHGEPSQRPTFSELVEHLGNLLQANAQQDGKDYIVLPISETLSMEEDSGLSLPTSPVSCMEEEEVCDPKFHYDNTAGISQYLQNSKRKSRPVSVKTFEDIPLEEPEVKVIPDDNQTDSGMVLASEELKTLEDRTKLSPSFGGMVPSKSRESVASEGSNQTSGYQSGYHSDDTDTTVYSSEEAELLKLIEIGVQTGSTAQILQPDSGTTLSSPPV
Sequence of TIE2 (Q02763 23-1124, species assumed): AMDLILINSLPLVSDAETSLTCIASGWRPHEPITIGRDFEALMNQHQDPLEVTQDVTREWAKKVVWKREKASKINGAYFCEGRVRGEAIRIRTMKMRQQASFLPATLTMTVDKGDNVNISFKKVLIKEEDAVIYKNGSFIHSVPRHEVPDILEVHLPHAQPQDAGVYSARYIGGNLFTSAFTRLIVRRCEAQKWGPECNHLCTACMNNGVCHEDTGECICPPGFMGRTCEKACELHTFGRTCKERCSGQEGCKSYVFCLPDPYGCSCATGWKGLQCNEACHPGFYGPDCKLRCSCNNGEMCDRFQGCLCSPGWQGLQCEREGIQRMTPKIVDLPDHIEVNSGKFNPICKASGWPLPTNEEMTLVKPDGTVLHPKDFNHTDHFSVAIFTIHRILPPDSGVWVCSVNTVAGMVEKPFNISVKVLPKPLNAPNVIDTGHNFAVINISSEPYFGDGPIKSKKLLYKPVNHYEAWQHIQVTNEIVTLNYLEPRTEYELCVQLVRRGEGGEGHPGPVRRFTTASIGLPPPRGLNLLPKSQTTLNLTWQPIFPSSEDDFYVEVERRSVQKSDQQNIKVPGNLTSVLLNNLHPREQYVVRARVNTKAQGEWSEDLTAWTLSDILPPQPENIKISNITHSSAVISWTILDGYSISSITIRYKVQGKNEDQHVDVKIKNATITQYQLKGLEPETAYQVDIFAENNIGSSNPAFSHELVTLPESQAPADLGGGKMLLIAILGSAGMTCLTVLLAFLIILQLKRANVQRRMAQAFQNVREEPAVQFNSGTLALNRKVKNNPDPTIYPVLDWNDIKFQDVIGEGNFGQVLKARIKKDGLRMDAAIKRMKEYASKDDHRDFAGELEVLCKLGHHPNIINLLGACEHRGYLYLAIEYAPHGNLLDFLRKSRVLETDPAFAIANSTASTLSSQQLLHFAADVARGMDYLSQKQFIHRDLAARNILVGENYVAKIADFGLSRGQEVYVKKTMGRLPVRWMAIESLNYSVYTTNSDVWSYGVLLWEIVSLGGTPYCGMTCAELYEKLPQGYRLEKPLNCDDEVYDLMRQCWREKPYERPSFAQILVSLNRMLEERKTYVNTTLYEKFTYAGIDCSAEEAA
Sequence of FAK (Q05397 whole entry, species assumed): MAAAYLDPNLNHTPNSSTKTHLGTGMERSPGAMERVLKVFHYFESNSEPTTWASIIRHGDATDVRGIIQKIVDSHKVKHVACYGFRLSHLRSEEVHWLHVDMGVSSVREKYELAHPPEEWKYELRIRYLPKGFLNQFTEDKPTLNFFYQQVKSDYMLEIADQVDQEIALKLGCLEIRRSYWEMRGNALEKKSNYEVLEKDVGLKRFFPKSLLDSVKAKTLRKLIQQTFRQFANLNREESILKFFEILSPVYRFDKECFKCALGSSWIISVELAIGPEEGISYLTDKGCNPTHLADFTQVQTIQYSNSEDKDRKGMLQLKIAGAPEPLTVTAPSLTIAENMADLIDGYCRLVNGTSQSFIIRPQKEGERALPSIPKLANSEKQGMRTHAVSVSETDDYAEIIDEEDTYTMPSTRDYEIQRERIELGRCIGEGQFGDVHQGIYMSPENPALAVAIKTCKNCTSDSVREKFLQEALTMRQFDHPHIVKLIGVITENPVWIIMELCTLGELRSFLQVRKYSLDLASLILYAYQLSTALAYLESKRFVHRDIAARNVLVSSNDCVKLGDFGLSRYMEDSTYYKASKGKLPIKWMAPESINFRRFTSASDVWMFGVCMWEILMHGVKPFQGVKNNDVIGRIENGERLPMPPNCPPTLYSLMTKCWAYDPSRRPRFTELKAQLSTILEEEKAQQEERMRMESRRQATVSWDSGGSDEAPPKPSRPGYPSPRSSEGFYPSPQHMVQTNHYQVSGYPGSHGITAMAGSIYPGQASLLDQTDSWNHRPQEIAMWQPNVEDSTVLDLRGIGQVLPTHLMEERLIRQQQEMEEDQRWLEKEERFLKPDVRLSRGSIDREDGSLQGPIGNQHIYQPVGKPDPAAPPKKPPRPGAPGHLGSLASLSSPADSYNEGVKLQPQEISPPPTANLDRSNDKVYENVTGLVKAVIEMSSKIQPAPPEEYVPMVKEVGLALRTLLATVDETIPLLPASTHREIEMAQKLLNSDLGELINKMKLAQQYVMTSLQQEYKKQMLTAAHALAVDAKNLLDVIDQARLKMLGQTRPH
T1 sequence (P06213 28-1382): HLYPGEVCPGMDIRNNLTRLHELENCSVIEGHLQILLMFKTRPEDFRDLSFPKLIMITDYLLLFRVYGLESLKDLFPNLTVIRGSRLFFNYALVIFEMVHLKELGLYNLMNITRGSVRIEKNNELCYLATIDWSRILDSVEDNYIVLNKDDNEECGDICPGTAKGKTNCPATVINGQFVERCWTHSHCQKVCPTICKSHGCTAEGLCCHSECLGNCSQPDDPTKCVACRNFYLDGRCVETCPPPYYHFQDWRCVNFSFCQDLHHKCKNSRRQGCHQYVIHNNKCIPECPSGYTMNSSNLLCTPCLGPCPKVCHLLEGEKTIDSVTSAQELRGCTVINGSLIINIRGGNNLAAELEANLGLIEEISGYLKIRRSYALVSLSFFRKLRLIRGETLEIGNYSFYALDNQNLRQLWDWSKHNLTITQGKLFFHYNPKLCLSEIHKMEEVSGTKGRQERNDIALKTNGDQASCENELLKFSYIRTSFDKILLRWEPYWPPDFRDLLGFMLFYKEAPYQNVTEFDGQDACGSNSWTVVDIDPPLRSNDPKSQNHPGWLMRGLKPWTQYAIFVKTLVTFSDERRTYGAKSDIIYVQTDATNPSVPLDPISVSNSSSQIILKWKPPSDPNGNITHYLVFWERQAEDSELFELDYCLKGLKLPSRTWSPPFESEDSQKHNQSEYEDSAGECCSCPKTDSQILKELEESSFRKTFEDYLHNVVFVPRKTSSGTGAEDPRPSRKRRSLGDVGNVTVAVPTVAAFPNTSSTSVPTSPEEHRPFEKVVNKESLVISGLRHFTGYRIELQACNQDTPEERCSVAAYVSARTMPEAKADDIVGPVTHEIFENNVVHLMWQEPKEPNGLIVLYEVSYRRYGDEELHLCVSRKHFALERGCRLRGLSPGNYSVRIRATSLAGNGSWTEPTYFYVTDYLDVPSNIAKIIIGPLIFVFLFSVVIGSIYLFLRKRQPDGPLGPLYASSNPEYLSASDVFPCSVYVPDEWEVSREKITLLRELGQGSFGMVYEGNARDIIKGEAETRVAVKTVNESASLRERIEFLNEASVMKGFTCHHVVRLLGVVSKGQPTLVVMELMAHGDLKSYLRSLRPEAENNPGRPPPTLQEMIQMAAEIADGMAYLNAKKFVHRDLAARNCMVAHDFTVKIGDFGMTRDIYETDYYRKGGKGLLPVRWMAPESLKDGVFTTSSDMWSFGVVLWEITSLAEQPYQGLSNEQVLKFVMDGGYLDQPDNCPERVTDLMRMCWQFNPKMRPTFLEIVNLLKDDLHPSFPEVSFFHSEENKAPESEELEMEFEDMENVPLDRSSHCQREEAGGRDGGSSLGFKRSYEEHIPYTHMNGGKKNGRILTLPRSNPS

| IC50 [1] | IC50 [2] | melting point | IC50 [3] | IC50 [4] | solubility at 24 h [5] | Solubility [5] | Solubility ([5]; listed as 3-[4-Amino-7-(3-pyrrolidin-1-ylmethylcyclobutyl)-7H-pyrrolo[2,3-d]pyrimidin-5-yl) | SMILES |
| --- | --- | --- | --- | --- | --- | --- | --- | --- |
| 10 nM | 380 nM | 142 to 144 °C | 7900 nM | 12000 nM | 1330 µg/mL (≈ 3.99 mM) |  |  | NCC1CC(n2cc(-c3ccc4[nH]ccc4c3)c3c(N)ncnc32)C1 (stereo not shown) [Compound 3, 7-(3-Aminomethylcyclobutyl)-5-(1H-indol-5-yl)-7H-pyrrolo[2,3-d]pyrimidin-4-ylamine] |
| 180 nM | 520 nM | 193 to 194 °C | 1800 nM | 2100 nM | 1070 µg/mL (≈ 2.95 mM) |  |  | Nc1ncnc2c1c(-c1cccc(O)c1)cn2C1CC(CN2CCCC2)C1 (stereo not shown) [Compound 1, 3-[4-amino-7-(3-pyrrolidin-1-ylmethylcyclobutyl)-7H-pyrrolo[2,3-d]pyrimidin-5-yl]phenol] |
| 160 nM | 1100 nM |  |  |  |  |  |  | NCC1CC(n2cc(-c3cc4ccccc4o3)c3c(N)ncnc32)C1 (stereo not shown) [Compound 37] |
| 195 nM | 870 nM |  | 2700 nM |  |  | 1147 µg/mL (≈ 3.16 mM) | 1147 (tosylate) μg/ml | Nc1ncnc2c1c(-c1cccc(O)c1)cn2C1CC(CN2CCCC2)C1 (stereo not shown) [Compound 2, 3-[4-Amino-7-(3-pyrrolidin-1-ylmethylcyclobutyl)-7H-pyrrolo[2,3-d]pyrimidin-5-yl]phenol] |
